The values below come from patent publication US20140142170A1, “COMPOSITION AND METHOD FOR INFLUENCING ENERGY METABOLISM AND TREATING METABOLIC AND OTHER DISORDERS” (SIRTUIN VALLEY OY, priority 2010, published 2014).

One assay concerns PGC-1α. Briefly: PGC-1α protein expression, immunoblot and densitometry in 3T3 L1 preadipocytes. The format is cell-based. As to conditions: 60 μM, 24 hours; for PGC-1α protein expression, Derivative vs. GR24: derivative compared to GR24 (=100%). How it is done:
3T3L1 cells were purchased from American Type Culture Collection (Manassas, Va., USA) and cultured in DMEM media containing 4.5 g/l glucose supplemented with 10% fetal bovine serum (Hyclone), 2 mM L-glutamine (Gibco), 100 U/ml penicillin, and 100 μg/ml streptomycin (Gibco). The cells were cultured at 37° C. in a humidified atmosphere with 10% CO2. […]
(§1) Protein concentrations were measured using a BCA (bicinchoninic acid) protein assay kit (Cat.#23225; Pierce, Rockford, Ill.). Twenty (20) μg/lane of total cellular protein samples containing NuPAGE LDS sample buffer (Invitrogen) and reducing agent were loaded into 4-12% NuPAGE Bis-Tris gels (Invitrogen), subjected to gel electrophoresis, and transferred to polyvinylidene fluoride membranes (Amersham). For SIRT1 proteins, membranes were blocked in 0.05% TBS-Tween with 3% milk for 1 hour, incubated overnight at +4° C. with SIRT1 primary antibodies (Cat.#07-131, Millipore). For phospho-AMPKα and AMPKα proteins, blocking was done for 1 hour in 0.1% TBS-Tween with 5% milk. The membranes were incubated overnight at +4° C. with phospho-AMPKα (Cat. #2535, Cell Signaling) and AMPKα (Cat.#2532, Cell Signaling) primary antibodies. Horseradish peroxidase-conjugated anti-rabbit antibodies (Cat. #NA934V GE Health Care, Amersham, U.K) were used as secondary antibodies. For α-tubulin (loading control), membranes were blocked in 0.05% PBS-Tween with 3% milk for 1 hour, incubated with α-tubulin (Cat.# B-5-1-2, Sigma) primary antibodies for 1 hour at room temperature and horseradish peroxidase-conjugated anti-mouse (Cat. # NA 931V GE Health Care, Amersham, U.K.) IgG antibodies were used as secondary antibodies.
(§2) The membranes were developed using chemiluminescence (ECL plus, GE Health Care), and images were captured in an Image Quant RT-ECL machine (version 1.0.1; GE Health Care). Densitometry and quantification of the bands were done by applying Quantity One software (Bio-Rad). The expression levels of the proteins were normalized to α-tubulin protein levels.
PGC-1α as an indicator of SIRT1 activity: PGC-1α has been extensively described as a master regulator of mitochondrial biogenesis. […] When SIRT1 protein expression is induced, it interacts with and deacetylates PGC-1α in an NAD-dependent manner. Thus SIRT1 acts as a modulator of PGC-1a (Rodgers J T et al, Nature 2005). The effects of resveratrol, a nonselective SIRT1 activator, were associated with an induction of genes for oxidative phosphorylation and mitochondrial biogenesis, and were largely explained by a resveratrol-mediated decrease in PGC-1α acetylation and an increase in PGC-1α activity (Lagouge M, Cell 2006). Therefore, PGC-1α protein expression serves as an indicator of SIRT1 activity.
3T3L1 cells were purchased from American Type Culture Collection (Manassas, Va., USA) and cultured in DMEM media containing 4.5 g/l glucose supplemented with 10% fetal bovine serum (Hyclone), 2 mM L-glutamine (Gibco) and 100 U/ml penicillin, 100 μg/ml streptomycin (Gibco). The cells were cultured at 37° C. in a humidified atmosphere with 10% CO2. 3T3L1 preadipocytes were plated at 1×10^5 cells/well in 6 well plates and incubated at 37° C. in a humidified atmosphere with 10% CO2. The media was removed after 24 hours and the cells were treated with 60 μM GR24 or with 60 μM 1A, 1B, 5A, 5B, 6A, or 7A and incubated for 24 hours at 37° C. in a humidified atmosphere with 10% CO2. In all experiments, the controls were treated with the same volume of DMSO as was used to dissolve compounds in compound-treated cells to show and ensure that the actual change in protein expression in different treatments was only due to the compounds […]. The media was removed, cells were washed with PBS and cell lysates were collected on ice. Proteins were extracted using RIPA buffer along with protease and phosphatase inhibitors. Lysates were centrifuged for 30 min at high speed; supernatant was collected and stored at −70° C. until further analysis.

In assay [1] the test system is SIRT1. Briefly: SIRT1 protein expression, immunoblot and densitometry in 3T3 L1 preadipocytes. The format is cell-based. As to conditions: 3T3 L1 preadipocytes, 60 μM, 24 hours; for SIRT1 protein expression, Derivative vs. GR24: derivative compared to GR24 (=100%). Here is the method: (§3) 3T3L1 cells were purchased from American Type Culture Collection (Manassas, Va., USA) and cultured in DMEM media containing 4.5 g/l glucose supplemented with 10% fetal bovine serum (Hyclone), 2 mM L-glutamine (Gibco), 100 U/ml penicillin, and 100 μg/ml streptomycin (Gibco). The cells were cultured at 37° C. in a humidified atmosphere with 10% CO2.
(§4) The 3T3L1 cells were plated at 6×10^4 cells/well in 12 well plates and incubated at 37° C. in a humidified atmosphere with 10% CO2. The media was removed after 24 hours and the cells were treated with 60 μM GR24 individually and in combination with 60 resveratrol and 60 μM pinosylvin, and incubated for 24 hours at 37° C. in a humidified atmosphere with 10% CO2. The media was removed, cells were washed with PBS, and cell lysates were collected on ice. Proteins were extracted using RIPA buffer along with protease and phosphatase inhibitors. Lysates were centrifuged for 30 min at high speed; supernatant was collected and stored at […] until further analysis. The vehicle controls were 3T3 L1 cells without any treatment with drugs or other compounds. The drugs or compounds that were used in all the experiments were dissolved or diluted in dimethylsulfoxide (DMSO) as diluent. In all experiments, the controls were treated with the same volume of DMSO as was used to dissolve drugs or compounds in compound-treated cells to show and ensure that the actual change in protein expression in different treatments was due solely to the compounds or combination of compounds and not to the DMSO.
as §1, §2
3T3L1 cells were purchased from American Type Culture Collection (Manassas, Va., USA) and cultured in DMEM media containing 4.5 g/l glucose supplemented with 10% fetal bovine serum (Hyclone), 2 mM L-glutamine (Gibco) and 100 U/ml penicillin, 100 μg/ml streptomycin (Gibco). The cells were cultured at 37° C. in a humidified atmosphere with 10% CO2. 3T3L1 preadipocytes were plated at 1×10^5 cells/well in 6 well plates and incubated at 37° C. in a humidified atmosphere with 10% CO2. […] In all experiments, the controls were treated with the same volume of DMSO as was used to dissolve compounds in compound-treated cells to show and ensure that the actual change in protein expression in different treatments was only due to the compounds DMSO. […]
On the technique in general: In western blotting, separated proteins are transferred to a membrane and probed.

Assay [2] has as its target T1, SIRT1 (Mus musculus, UniProt Q923E4).
T1 construct: host or cells: mice (in vivo)
T1 sequence (Q923E4 1-737): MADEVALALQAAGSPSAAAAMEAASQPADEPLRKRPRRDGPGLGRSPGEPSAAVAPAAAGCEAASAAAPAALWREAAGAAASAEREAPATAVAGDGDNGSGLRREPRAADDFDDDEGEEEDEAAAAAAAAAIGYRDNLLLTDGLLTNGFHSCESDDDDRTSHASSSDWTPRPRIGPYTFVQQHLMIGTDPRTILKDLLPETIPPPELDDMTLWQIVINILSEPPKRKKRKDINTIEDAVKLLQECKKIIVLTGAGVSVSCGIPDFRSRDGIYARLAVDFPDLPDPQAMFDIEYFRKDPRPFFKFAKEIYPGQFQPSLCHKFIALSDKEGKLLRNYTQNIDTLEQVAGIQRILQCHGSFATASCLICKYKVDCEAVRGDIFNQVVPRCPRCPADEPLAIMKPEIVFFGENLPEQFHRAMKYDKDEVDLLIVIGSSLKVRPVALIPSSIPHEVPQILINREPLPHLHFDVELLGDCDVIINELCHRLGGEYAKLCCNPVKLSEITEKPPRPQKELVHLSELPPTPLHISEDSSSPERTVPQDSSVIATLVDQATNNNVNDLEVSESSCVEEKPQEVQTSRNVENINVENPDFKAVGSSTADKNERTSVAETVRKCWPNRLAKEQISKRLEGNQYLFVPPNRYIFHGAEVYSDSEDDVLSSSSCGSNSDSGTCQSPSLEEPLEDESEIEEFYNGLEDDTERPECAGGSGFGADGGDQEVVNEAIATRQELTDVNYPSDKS
The settings on record: mice; cited from earlier work.

The test system of another assay is phospho-ACC. Description: phospho-ACC expression, immunoblot in 3T3 L1 preadipocytes. The format is cell-based. The settings on record: 3T3 L1 preadipocytes, 60 μM, 24 hours.
Another assay relates to phospho-AMPK. Description: phospho-AMPK expression / AMPK activation, immunoblot in 3T3 L1 preadipocytes. The settings on record: 3T3 L1 preadipocytes, 60 μM, 24 hours. It counts as cell-based. Here is the method: as §3
as §4, with “The media was removed after 24 hours and the cells were treated with 60 μM GR24 individually and in combination with 60 resveratrol and 60 μM pinosylvin, and incubated for 24 hours at 37° C. in a humidified atmosphere with 10% CO2.” left out
as §1, §2

Assay [3] concerns mitochondria of 3T3L1 preadipocytes. Briefly: Mitochondrial staining with MitoTracker green, confocal microscopy. The settings on record: 60 μM, 24 hours. The format is cell-based. How it is done: The 3T3L1 preadipocytes were plated onto Ibidi u-slide 8 well plates at 1.6×10^4 cells/well and incubated at 37° C. in a humidified atmosphere with 10% CO2. The media was removed after 24 hours, the cells were treated with 60 μM GR24 and incubated for 24 hours at 37° C. in a humidified atmosphere with 10% CO2. After 24 hours of treatment, staining of mitochondria was done using 200 nM MitoTracker Mitochondrion-Selective Probes (Green FM probes Cat.#M7514, Invitrogen) according to the manufacturer's instructions. The cells were observed using a confocal microscope and images were taken at 40× oil immersion.
Preadipocytes were treated with DMSO (Vehicle control) (FIG. 5A), 60 μM resveratrol (FIG. 5B) or 60 μM strigolactone analog GR24 (FIG. 5C) for 24 hours. Next, preadipocytes were stained with MitoTracker green and observed under a confocal microscope at 40× oil immersion. […] The white oval shaped structures are nucleus and the white thread-like structures around the nucleus in the cytoplasm are mitochondria. When compared to the control, there was an increase in mitochondrial biogenesis represented by elongated mitochondria, and an increase in mitochondrial activation represented by the intensity of fluorescence, in cells treated with resveratrol and GR24. […] Thus, GR24 enhances both biogenesis and activity of mitochondria, which is necessary to generate ATP.

SMILES strings stand for the structures. Entries after “also recorded” stand apart in the source; their conditions may differ.

For the molecule `CCC1=C[C@H](O/C=C2/C(=O)O[C@@H]3c4ccccc4C[C@H]23)OC1=O` [Compound 1A], in the assay on PGC-1α, the “PGC-1α protein expression compared to control (100%)” value (“PGC-1α protein expression … (100%)” for short) stood at 1A 186% and the “PGC-1α protein expression, Derivative vs. GR24” value is listed as “+11%”. In the assay on SIRT1 [1], the “SIRT1 protein expression compared to control (100%)” value (“SIRT1 protein expression … (100%)” for short) is reported as 1A 186% and the “SIRT1 protein expression, Derivative vs. GR24” value is listed as “+11%”.
As to `CCC1=C[C@H](O/C=C2/C(=O)O[C@H]3c4ccccc4C[C@@H]23)OC1=O` [Compound 1B], in the assay on PGC-1α, the “PGC-1α protein expression … (100%)” value was 1B 215% and the “PGC-1α protein expression, Derivative vs. GR24” value is on record as “+31%”. For the same molecule, in the assay with SIRT1 [1], the “SIRT1 protein expression … (100%)” value is reported as 1B 215% and the “SIRT1 protein expression, Derivative vs. GR24” value was “+31%”.
Turning to `CC1=C[C@H](O/C=C2/C(=O)O[C@H]3c4c(C)cccc4C[C@@H]23)OC1=O` [Compound 5B], in the assay with PGC-1α, the “PGC-1α protein expression … (100%)” value amounted to 5B 327% and the “PGC-1α protein expression, Derivative vs. GR24” value was “+48%”. Besides, in the assay on SIRT1 [1], the “SIRT1 protein expression … (100%)” value was found to be 5B 327% and the “SIRT1 protein expression, Derivative vs. GR24” value is recorded as “+48%”.
On to `COc1cccc2c1[C@H]1OC(=O)/C(=C/O[C@H]3C=C(C)C(=O)O3)[C@H]1C2` [Compound 6A], for which, in the assay on PGC-1α, the “PGC-1α protein expression … (100%)” value is reported as 6A 206% and the “PGC-1α protein expression, Derivative vs. GR24” value was “+38%”. For the same molecule, in the assay on SIRT1 [1], the “SIRT1 protein expression … (100%)” value is recorded as 6A 206% and the “SIRT1 protein expression, Derivative vs. GR24” value is “+38%”.
Regarding `COc1ccc(C)c2c1C[C@@H]1/C(=C\O[C@H]3C=C(C)C(=O)O3)C(=O)O[C@H]21` [Compound 7A], in the assay on PGC-1α, the “PGC-1α protein expression … (100%)” value worked out at 7A 218% and the “PGC-1α protein expression, Derivative vs. GR24” value is reported as “+30%”. For the same molecule, in the assay with SIRT1 [1], the “SIRT1 protein expression … (100%)” value is recorded as 7A 218% and the “SIRT1 protein expression, Derivative vs. GR24” value is listed as “+30%”.
With `Oc1ccc(/C=C/c2cc(O)cc(O)c2)cc1` [resveratrol, 3,5,4″-trans-trihydroxystilbene], on SIRT1 [2], the SIRT1 activity result is reported as “increases” and the “genes responsible for mitochondrial biogenesis” value was “stimulates”. Also, the “phospho-ACC expression (phosphorylation of ACC) compared to control” value in the assay with phospho-ACC is “no change”. In addition, the “phospho-AMPK expression compared to control” value with phospho-AMPK was “significant increase; also recorded: increased”. Also, in assay [3], the “mitochondrial activation (intensity of fluorescence) compared to control” value is on record as “increase” and the “mitochondrial biogenesis (elongated mitochondria) compared to control” value was “increase”.
